Where no end group is shown, it is not given here.
Test system: E. coli (CCUG 29300)
Test: Endotoxin binding of AMP functionalised crosslinked hydrogel particle dispersion, chromogenic LAL endotoxin assay
Format: cell-based
Conditions: E. coli 10^6 CFU/ml, 37° C., 1 hour, 3 hours and 24 hours, FIG. 2 and 3

“RRPRPRPRPWWWW-NH2 [RRP9W4N, PRELP derived amphiphilic antimicrobial peptide, free in PBS solution]” was tested, and the endotoxin neutralisation was “neutralised endotoxins in all measured durations of incubation”.
